One experiment has as its system Puccinia triticina. As to the kind of experiment: Wheat brown rust (PUCCRT) disease control on wheat seedlings. The class given is in vivo. To be noted: High volume application, 100 ppm. The method, then:
Technical grades of materials were dissolved in acetone, which were then mixed with nine volumes of water containing 110 ppm Triton X-100. The fungicide solutions were applied onto wheat seedlings using an automated booth sprayer to run-off. All sprayed plants were allowed to air dry prior to further handling. All fungicides were evaluated using the aforementioned method for their activity vs. all target diseases, unless stated otherwise. Wheat leaf blotch and brown rust activity were also evaluated using track spray applications, in which case the fungicides were formulated as EC formulations, containing 0.1% Trycol 5941 in the spray solutions. Example B: Evaluation of Fungicidal Activity: Wheat Brown Rust (Puccinia triticina; Synonym: Puccinia recondita f. sp. tritici; Bayer Code PUCCRT) Wheat plants (variety Yuma) were grown from seed in a greenhouse in 50% mineral soil/50% soil-less Metro mix until the first leaf was fully emerged, with 7-10 seedlings per pot. These plants were inoculated with an aqueous spore suspension of Puccinia triticina either prior to or after fungicide treatments. After inoculation the plants were kept in a dark dew room at 22° C. with 100% relative humidity overnight to permit spores to germinate and infect the leaf. The plants were then transferred to a greenhouse set at 24° C. for disease to develop. Fungicide formulation, application and disease assessment followed the procedures as described in the Example A.

The next experiment has as its system Zymoseptoria tritici. As to the kind of experiment: Leaf blotch of wheat (SEPTTR) disease control on wheat seedlings. It is filed as in vivo. The note with it: High volume application, 100 ppm. The method, then: Example A: Evaluation of Fungicidal Activity: Leaf Blotch of Wheat (Zymoseptoria tritici; Bayer Code […]) Technical grades of materials were dissolved in acetone, which were then mixed with nine volumes of water containing 110 ppm Triton X-100. The fungicide solutions were applied onto wheat seedlings using an automated booth sprayer to run-off. All sprayed plants were allowed to air dry prior to further handling. All fungicides were evaluated using the aforementioned method for their activity vs. all target diseases, unless stated otherwise. Wheat leaf blotch and brown rust activity were also evaluated using track spray applications, in which case the fungicides were formulated as EC formulations, containing 0.1% Trycol 5941 in the spray solutions. Wheat plants (variety Yuma) were grown from seed in a greenhouse in 50% mineral soil/50% soil-less Metro mix until the first leaf was fully emerged, with 7-10 seedlings per pot. These plants were inoculated with an aqueous spore suspension of Zymoseptoria tritici either prior to or after fungicide treatments. After inoculation the plants were kept in 100% relative humidity (one day in a dark dew chamber followed by two to three days in a lighted dew chamber at 20° C.) to permit spores to germinate and infect the leaf. The plants were then transferred to a greenhouse set at 20° C. for disease to develop. When disease symptoms were fully expressed on the 1st leaves of untreated plants, infection levels were assessed on a scale of 0 to 100 percent disease severity. Percent disease control was calculated using the ratio of disease severity on treated plants relative to untreated plants.

Setting [1] is: 24 h, 1 Day Protectant, read-out: PUCCRT disease control rating, 1DP.
[2] abbreviates: 72 h, 3 Day Curative, read-out: PUCCRT disease control rating, 3DC.
The mark [3] stands for this setting: 24 h, 1 Day Protectant, read-out: SEPTTR disease control rating, 1DP.
Where [4] appears, read: 72 h, 3 Day Curative, read-out: SEPTTR disease control rating, 3DC.

The structures appear in SMILES notation. Like-named read-outs stand apart in the source and are kept apart here. Where only a bound is given, the exact number is not on record here.

Regarding `COc1ccnc(C(=O)NCC(=O)O[C@H](C)[C@H](C)c2ccc(F)cc2C)c1O` [Example 123], the pest or weed control at 100 ppm in the experiment on Puccinia triticina (setting [1]) was more than 80%; in the experiment on Puccinia triticina (setting [2]) it was less than 80%; in the experiment on Zymoseptoria tritici (setting [3]), less than 0%; in the experiment with Zymoseptoria tritici (setting [4]) it was less than 80%.

For the compound `COc1ccnc(C(=O)N[C@H](C)C(=O)O[C@H](C)[C@@H](C)c2ccccc2C)c1O` [Example 155], the pest or weed control at 100 ppm in the experiment on Puccinia triticina (setting [1]), in the experiment on Puccinia triticina (setting [2]), in the experiment on Zymoseptoria tritici (setting [3]) and in the experiment with Zymoseptoria tritici (setting [4]) was less than 80% in each case.

`COc1ccnc(C(=O)N[C@@H](C)C(=O)OC(C)C(C)c2c(C)cccc2C)c1O` (stereo partly shown) [Example 164]: the pest or weed control at 100 ppm was more than 80% with Puccinia triticina (setting [1]), more than 80% in the experiment with Puccinia triticina (setting [2]), less than 80% in the experiment on Zymoseptoria tritici (setting [3]) and more than 80% in the experiment on Zymoseptoria tritici (setting [4]).

`COc1ccnc(C(=O)N[C@@H](C)C(=O)O[C@@H](C)[C@@H](C)c2c(C)cc(F)cc2C)c1O` [Example 167]: the pest or weed control at 100 ppm in the experiment on Puccinia triticina (setting [1]), with Puccinia triticina (setting [2]), in the experiment with Zymoseptoria tritici (setting [3]) and in the experiment with Zymoseptoria tritici (setting [4]) was more than 80% in each case.

With `COc1ccnc(C(=O)N[C@@H](C)C(=O)O[C@H](C)[C@@H](C)c2ccccc2C)c1O` [Example 135], the pest or weed control at 100 ppm with Puccinia triticina (setting [1]), in the experiment with Puccinia triticina (setting [2]), with Zymoseptoria tritici (setting [3]) and in the experiment on Zymoseptoria tritici (setting [4]) was less than 80% throughout.

As for `COc1ccnc(C(=O)N[C@@H](C)C(=O)O[C@@H](C)[C@@H](C)c2ccc(N(C)C)cc2)c1O` [Example 176], the pest or weed control at 100 ppm in the experiment on Puccinia triticina (setting [1]) was more than 80%; in the experiment with Puccinia triticina (setting [2]), less than 80%; with Zymoseptoria tritici (setting [3]), less than 0%; with Zymoseptoria tritici (setting [4]), less than 80%.

`COc1ccnc(C(=O)N[C@H](C)C(=O)O[C@@H](C)[C@H](C)c2ccc(F)cc2C)c1O` [Example 149]: the pest or weed control at 100 ppm is less than 0% in the experiment with Puccinia triticina (setting [1]), less than 0% in the experiment with Puccinia triticina (setting [2]), less than 80% in the experiment on Zymoseptoria tritici (setting [3]) and less than 80% in the experiment with Zymoseptoria tritici (setting [4]).

As to `COc1ccc([C@@H](C)[C@@H](C)OC(=O)[C@H](C)NC(=O)c2nccc(OC)c2O)c(C)c1` [Example 137], the pest or weed control at 100 ppm with Puccinia triticina (setting [1]) was more than 80%; with Puccinia triticina (setting [2]), less than 80%; in the experiment with Zymoseptoria tritici (setting [3]), less than 80%; in the experiment with Zymoseptoria tritici (setting [4]), less than 80%.

Consider `COc1ccnc(C(=O)N[C@@H](C)C(=O)O[C@H](C)[C@H](C)c2ccc(C)cc2C)c1O` [Example 117], for which the pest or weed control at 100 ppm in the experiment with Puccinia triticina (setting [1]), with Puccinia triticina (setting [2]), in the experiment on Zymoseptoria tritici (setting [3]) and with Zymoseptoria tritici (setting [4]) was less than 80% in each case.

In the case of `COc1ccnc(C(=O)N[C@@H](C)C(=O)O[C@@H](C)[C@@H](C)c2ccc(C)s2)c1O` [Example 172], the pest or weed control at 100 ppm is less than 80% in the experiment on Puccinia triticina (setting [1]), more than 80% in the experiment on Puccinia triticina (setting [2]), less than 80% in the experiment on Zymoseptoria tritici (setting [3]) and less than 80% with Zymoseptoria tritici (setting [4]).

In the case of `COc1ccnc(C(=S)N[C@@H](C)C(=O)O[C@@H](C)[C@@H](C)c2ccccc2C(F)(F)F)c1O` [Example 267], the pest or weed control at 100 ppm with Puccinia triticina (setting [1]) is more than 80%; in the experiment with Puccinia triticina (setting [2]), less than 80%; in the experiment on Zymoseptoria tritici (setting [3]) it was less than 80%; in the experiment with Zymoseptoria tritici (setting [4]), less than 80%.

As to `COc1ccnc(C(=O)N[C@@H](C)C(=O)O[C@@H](C)[C@H](C)c2ccccc2C)c1O` [Example 130], the pest or weed control at 100 ppm in the experiment with Puccinia triticina (setting [1]) is more than 80%; in the experiment on Puccinia triticina (setting [2]), more than 80%; in the experiment on Zymoseptoria tritici (setting [3]), less than 80%; with Zymoseptoria tritici (setting [4]) it was less than 80%.

As to `COc1ccnc(C(=O)N[C@H](C)C(=O)O[C@H](C)[C@H](C)c2ccc(F)cc2C)c1O` [Example 153], the pest or weed control at 100 ppm with Puccinia triticina (setting [1]), with Puccinia triticina (setting [2]), in the experiment on Zymoseptoria tritici (setting [3]) and in the experiment with Zymoseptoria tritici (setting [4]) was less than 80% throughout.

Values taken from US20200399222A1, “PICOLINAMIDES AS FUNGICIDES” (Dow AgroSciences LLC, priority 2018, published 2020).
